Like-named read-outs stand apart in the source and are kept apart here.
What was measured:
HTT mRNA = test: RT-qPCR splicing assay, HTT mRNA canonical (CJ) and alternative (AJ) junction; assay type: cell-based, human
Procedure: (§1) Compounds described herein were used to modulate RNA transcript abundance in cells. The expression of a target mRNA was measured by detecting the formation of an exon-exon junction in the canonical transcript (CJ). A compound mediated exon-inclusion event was detected by observing an increase in formation of a new junction with an alternative exon (AJ). Real-time qPCR assays were used to detect these splicing switches and interrogate the potency of various compounds towards different target genes. A high-throughput real time quantitative PCR (RT-qPCR) assay was developed to measure these two isoforms of the mRNA (CJ and AJ) for exemplary genes, such as HTT, SMN2, and MYB, together with a control housekeeping gene, GAPDH or GUSB or PPIA, used for normalization. Briefly, the A673 or K562 cell line was treated with various compounds described herein (e.g., compounds of Formula (I)). After treatment, the levels of the HTT, MYB, or SMN2 mRNA targets were determined from each sample of cell lysate by cDNA synthesis followed by qPCR.
(§2) The A673 cell line was cultured in DMEM with 10% FBS. Cells were diluted with full growth media and plated in a 96-well plate (15,000 cells in 100 ul media per well). The plate was incubated at 37° C. with 5% CO2 for 24 hours to allow cells to adhere. An 11-point 3-fold serial dilution of the compounds was made in DMSO then diluted in media in an intermediate plate. Compounds were transferred from the intermediate plate to the cell plate with the top dose at a final concentration of 10 uM in the well. Final DMSO concentration was kept at or below 0.25%. The cell plate was returned to the incubator at 37° C. with 5% CO2 for an additional 24 hours.
(§3) The K562 cell line was cultured in IMDM with 10% FBS. For K562, cells were diluted with full growth media and plated in either a 96-well plate (50,000 cells in 50 uL media per well) or a 384-well plate (8,000-40,000 cells in 45 uL media per well). An 11-point 3-fold serial dilution of the compounds were made in DMSO then diluted in media in an intermediate plate. Compound was transferred from the intermediate plate to the cell plate with the top dose at a final concentration of 10 uM in the well. Final DMSO concentration was kept at or below 0.25%. Final volume was 100 uL for 96-well plate and 50 uL for 384-well plate. The cell plate was then placed in an incubator at 37° C. with 5% CO2 for 24 hours.
(§4) The cells were then gently washed with 50 uL-100 uL cold PBS before proceeding to addition of lysis buffer. 30 uL-50 μL of room temperature lysis buffer with DNAse I (and optionally RNAsin) was added to each well. Cells were shaken/mixed thoroughly at room temperature for 5-10 minutes for lysis to take place and then 3 uL-5 μL of room temperature stop solution was added and wells were shaken/mixed again. After 2-5 minutes, the cell lysate plate was transferred to ice for RT-qPCR reaction setup. The lysates could also be frozen at −80° C. for later use.
(§5) In some cases, a direct lysis buffer was used. An appropriate volume of 3× lysis buffer (10 mM Tris, 150 mM NaCl, 1.5%-2.5% Igepal and 0.1-1 U/uL RNAsin, pH 7.4) was directly added to either K562 or A673 cells in media and mixed by pipetting 3 times. The plates were then incubated at room temperature with shaking/rocking for 20-50 minutes to allow for lysis to take place. After this time, the cell lysate plate was transferred to ice to set up for the RT-qPCR reactions. The lysates could also be frozen at −80° C. for later use.
(§6) To set up 10 uL RT-qPCR reactions, cell lysates were transferred to 384-well qPCR plates containing the master mix according to the table below. The plates were sealed, gently vortexed, and spun down before the run. The volumes were adjusted accordingly in some instances where the reaction was carried in 20 μL. The table below summarizes the components of the RT-qPCR reactions:
(§7) The RT-qPCR reaction was performed using a QuantStudio (ThermoFisher) under the following fast cycling conditions. […]

K562 cells = test: Cell Titer Glo 2.0 cell viability (toxicity) assay, K562; details: 500 cells/well, 72 hours
SMN2 mRNA = test: RT-qPCR splicing assay, SMN2 mRNA; assay type: cell-based, human; details: canonical junction qPCR panel, Table 4, read-out: SMN2 IC50 (decrease in CJ mRNA levels)
Procedure: as §1, §2, §3, §4, §5, §6, §7

MYB mRNA = test: RT-qPCR splicing assay, MYB mRNA canonical (CJ) and alternative (AJ) junction; assay type: cell-based, human
Procedure: as §1, §2, §3, §4, §5, §6, §7

[1] = Homo sapiens, RT-qPCR, HTT alternative junction mRNA increase, read-out: HTT AJ (increase in alternative junction mRNA, AC50)
[2] = Homo sapiens, RT-qPCR, HTT canonical junction mRNA decrease, read-out: HTT CJ (decrease in canonical junction mRNA, IC50)
[3] = Homo sapiens, canonical junction qPCR panel, Table 4, read-out: HTT IC50 (decrease in CJ mRNA levels)
[4] = Homo sapiens, RT-qPCR, MYB alternative junction mRNA increase, read-out: MYB AJ (increase in alternative junction mRNA, AC50)
[5] = Homo sapiens, RT-qPCR, MYB canonical junction mRNA decrease, read-out: MYB CJ (decrease in canonical junction mRNA, IC50)
[6] = Homo sapiens, canonical junction qPCR panel, Table 4, read-out: MYB IC50 (decrease in CJ mRNA levels)

Row | Compound | AC50 (HTT mRNA; [1]) [nM] | IC50 (HTT mRNA; [2]) [nM] | IC50 (HTT mRNA; [3]) [nM] | Effect of Exemplary Compounds on Cell Viability, K562 (K562 cells) | IC50 (SMN2 mRNA; Homo sapiens) [nM] | AC50 (MYB mRNA; [4]) [nM] | IC50 (MYB mRNA; [5]) [nM] | IC50 (MYB mRNA; [6]) [nM] | AC50 (HTT mRNA; Homo sapiens, HTT alternative junction mRNA, RT-qPCR, read-out: HTT AJ (increase in AJ mRNA, AC50)) [nM] | IC50 (HTT mRNA; Homo sapiens, HTT canonical junction mRNA, RT-qPCR, read-out: HTT CJ (decrease in CJ mRNA levels, IC50)) [nM] | AC50 (MYB mRNA; Homo sapiens, MYB alternative junction mRNA, RT-qPCR, read-out: MYB AJ (increase in AJ mRNA, AC50)) [nM] | IC50 (MYB mRNA; Homo sapiens, MYB canonical junction mRNA, RT-qPCR, read-out: MYB CJ (decrease in CJ mRNA levels, IC50)) [nM] | AC50 (HTT mRNA; HTT alternative junction mRNA, RT-qPCR, read-out: HTT AJ (increase in AJ mRNA, AC50)) [nM] | IC50 (HTT mRNA; HTT canonical junction mRNA, RT-qPCR, read-out: HTT CJ (decrease in CJ mRNA levels, IC50)) [nM] | IC50 (HTT mRNA; canonical junction qPCR panel, Table 4, read-out: HTT IC50 (decrease in CJ mRNA levels)) [nM] | IC50 (SMN2 mRNA) [nM] | AC50 (MYB mRNA; MYB alternative junction mRNA, RT-qPCR, read-out: MYB AJ (increase in AJ mRNA, AC50)) [nM] | IC50 (MYB mRNA; MYB canonical junction mRNA, RT-qPCR, read-out: MYB CJ (decrease in CJ mRNA levels, IC50)) [nM] | IC50 (MYB mRNA; canonical junction qPCR panel, Table 4, read-out: MYB IC50 (decrease in CJ mRNA levels)) [nM]
1 | C[C@H]1CN(c2ccc3nc(-c4cc(F)c5nc(CO)cn5c4)ncc3c2)C[C@H](C)N1 (single isomer, unassigned) [Compound 828] | 1000 to 10000 | 100 to 1000 | 100 to 1000 | B (B represents 100-1000 nM) | < 100 | < 100 | < 100 | < 100 | – | – | – | – | – | – | – | – | – | – | –
2 | Cn1cc2cc(-c3ccc4nc(N5CCN6CCCC6C5)ccc4n3)c(O)cc2n1 (centres unmarked) [Compound 134] | – | – | 1000 to 10000 | C (C represents 1000-9999 nM) | < 100 | – | – | 100 to 1000 | 1000 to 10000 | 1000 to 10000 | 100 to 1000 | 100 to 1000 | – | – | – | – | – | – | –
3 | Cc1c(O)c(-c2ccc3nc(N4CCC(NC(C)(C)C)C4)ccc3n2)cc2cn(C)nc12 (centres unmarked) [Compound 275] | – | – | – | – | – | – | – | – | – | – | – | – | < 100 | < 100 | < 100 | < 100 | < 100 | < 100 | < 100
4 | Cc1cn2cc(-c3ncc4cc(N5C[C@H](C)N[C@@H](C)C5)ccc4n3)ccc2n1 [Compound 827] | 1000 to 10000 | 1000 to 10000 | 1000 to 10000 | B (B represents 100-1000 nM) | < 100 | 100 to 1000 | 100 to 1000 | 100 to 1000 | – | – | – | – | – | – | – | – | – | – | –
5 | C[C@H]1CN(c2ccc3nc(-c4cc(F)c5nc(CF)cn5c4)ncc3c2)C[C@H](C)N1 [Compound 829, 6-[(3S,5S)-3,5-dimethylpiperazin-1-yl]-2-[8-fluoro-2-(fluoromethyl)imidazo[1,2-a]pyridin-6-yl]quinazoline] | 100 to 1000 | 100 to 1000 | 100 to 1000 | B (B represents 100-1000 nM) | < 100 | 100 to 1000 | < 100 | < 100 | – | – | – | – | – | – | – | – | – | – | –
6 | COc1cc(-c2ncc3cc(N4C[C@@H](C)N[C@@H](C)C4)ccc3n2)cn2cc(C)nc12 [Compound 830] | > 10000 | 1000 to 10000 | 1000 to 10000 | B (B represents 100-1000 nM) | < 100 | 100 to 1000 | 100 to 1000 | 100 to 1000 | – | – | – | – | – | – | – | – | – | – | –
7 | Cc1cn2cc(-c3ncc4cc(N5C[C@@H](C)N[C@@H](C)C5)ccc4n3)cc(C#N)c2n1 [Compound 831] | 1000 to 10000 | 100 to 1000 | 100 to 1000 | B (B represents 100-1000 nM) | < 100 | < 100 | < 100 | < 100 | – | – | – | – | – | – | – | – | – | – | –
8 | Cc1cn2cc(-c3ncc4cc(N5C[C@@H](C)N[C@@H](C)C5)ccc4n3)ccc2n1 [Compound 832] | > 10000 | > 10000 | > 10000 | C (C represents 1000-9999 nM) | < 100 | 1000 to 10000 | 100 to 1000 | 100 to 1000 | – | – | – | – | – | – | – | – | – | – | –
9 | C[C@@H]1CN(c2ccc3nc(-c4cc(F)c5nncn5c4)ncc3c2)C[C@H](C)N1 [Compound 833] | 1000 to 10000 | 1000 to 10000 | 1000 to 10000 | C (C represents 1000-9999 nM) | 100 to 1000 | 1000 to 10000 | 1000 to 10000 | 1000 to 10000 | – | – | – | – | – | – | – | – | – | – | –
10 | C[C@@H]1CN(c2ccc3nc(-c4cc(F)c5nc(CO)cn5c4)ncc3c2)C[C@H](C)N1 [Compound 834, (6-{6-[(3R,5S)-3,5-dimethylpiperazin-1-yl]quinazolin-2-yl}-8-fluoroimidazo[1,2-a]pyridin-2-yl)methanol] | 1000 to 10000 | 1000 to 10000 | 1000 to 10000 | C (C represents 1000-9999 nM) | < 100 | 100 to 1000 | 100 to 1000 | 100 to 1000 | – | – | – | – | – | – | – | – | – | – | –
11 | C[C@@H]1CN(c2ccc3nc(-c4cc(F)c5nc(CF)cn5c4)ncc3c2)C[C@H](C)N1 [Compound 835, 6-[(3R,5S)-3,5-dimethylpiperazin-1-yl]-2-[8-fluoro-2-(fluoromethyl)imidazo[1,2-a]pyridin-6-yl]quinazoline] | 1000 to 10000 | 1000 to 10000 | 1000 to 10000 | B (B represents 100-1000 nM) | < 100 | 100 to 1000 | 100 to 1000 | 100 to 1000 | – | – | – | – | – | – | – | – | – | – | –
12 | CCc1cn2cc(-c3ncc4cc(N5C[C@@H](C)N[C@@H](C)C5)ccc4n3)cc(F)c2n1 [Compound 836] | > 10000 | 1000 to 10000 | 1000 to 10000 | C (C represents 1000-9999 nM) | 100 to 1000 | 1000 to 10000 | > 10000 | > 10000 | – | – | – | – | – | – | – | – | – | – | –
13 | Cc1cn2cc(-c3ncc4cc(N5C[C@@H](C)N[C@@H](C)C5)ccc4n3)cc(Cl)c2n1 [Compound 896] | – | – | – | B (B represents 100-1000 nM) | – | – | – | – | – | – | – | – | – | – | – | – | – | – | –
14 | Cn1cc2cc(-c3ncc4cc(N5CC[C@H](NC(C)(C)C)C5)ccc4n3)c(O)c(F)c2n1 [Compound 929] | 100 to 1000 | 1000 to 10000 | 1000 to 10000 | – | < 100 | < 100 | < 100 | < 100 | – | – | – | – | – | – | – | – | – | – | –
15 | Cn1cc2cc(-c3ncc4cc(N5CC[C@@H](NC(C)(C)C)C5)ccc4n3)c(O)c(F)c2n1 [Compound 930] | > 10000 | 1000 to 10000 | 1000 to 10000 | – | < 100 | 100 to 1000 | 100 to 1000 | 100 to 1000 | – | – | – | – | – | – | – | – | – | – | –

Reference: patent US20250092065A1, “2-(INDAZOL-5-YL)-6-(PIPERIDIN-4-YL)-1,7-NAPHTHYRIDINE DERIVATIVES AND RELATED COMPOUNDS AS MODULATORS FOR SPLICING NUCLEIC ACIDS AND FOR THE TREATMENT OF PROLIFERATIVE DISEASES” (REMIX THERAPEUTICS INC., priority 2022, published 2025)
